In patent publication US11827657B2, “Boron containing pyrazole compounds, compositions comprising them, methods and uses thereof” (BOEHRINGER INGELHEIM ANIMAL HEALTH USA INC., priority 2020, dated 2023):

Molecular target: JAK1 (Homo sapiens, UniProt P23458)
Assay: Biochemical Kinase Assay (JAK), 33P-ATP filter-binding
Settings: Biochemical Kinase Inhibition Assay; potency level of IC50; read-out: JAK1 (range)
Experimental: Biochemical Kinase Assay Protocol (JAK) • Reagent: Base Reaction buffer; 20 mM Hepes (pH 7.5), 10 mM MgCl2, 1 mM EGTA, 0.02% Brij™ 35, 0.02 mg/ml BSA, 0.1 mM Na3VO4, 2 mM DTT, 1% DMSO, where required cofactors were added individually to each kinase reaction.
Reaction Procedure: • 1. Prepared indicated substrate in freshly prepared Base Reaction Buffer • 2. Delivered any required cofactors to the substrate solution above • 3. Delivered indicated kinase into the substrate solution and gently mix • 4. Delivered compounds in DMSO into the kinase reaction mixture by Acoustic technology (Echo550; nanoliter range), incubated for 20 minutes at room temperature • 5. Delivered 33P-ATP into the reaction mixture to initiate the reaction. • 6. Incubated kinase reaction for 2 hours at room temperature • 7. Reactions were spotted onto P81 ion exchange paper • 8. Detected kinase activity by filter-binding method.
Compounds according to the present invention were tested in the Biochemical Kinase Assay Protocol. The results are provided below in Table 1, wherein the potency levels A, B, and C in the columns labeled JAK1 (range) correspond to IC50 as follows: A<10 nM; B=10-50 nM and C>50 nM. The Example Number entries formatted ##a represent stereoisomer one and entries formatted ##b represent stereoisomer two.

Sequence of JAK1 (P23458 whole entry, species assumed): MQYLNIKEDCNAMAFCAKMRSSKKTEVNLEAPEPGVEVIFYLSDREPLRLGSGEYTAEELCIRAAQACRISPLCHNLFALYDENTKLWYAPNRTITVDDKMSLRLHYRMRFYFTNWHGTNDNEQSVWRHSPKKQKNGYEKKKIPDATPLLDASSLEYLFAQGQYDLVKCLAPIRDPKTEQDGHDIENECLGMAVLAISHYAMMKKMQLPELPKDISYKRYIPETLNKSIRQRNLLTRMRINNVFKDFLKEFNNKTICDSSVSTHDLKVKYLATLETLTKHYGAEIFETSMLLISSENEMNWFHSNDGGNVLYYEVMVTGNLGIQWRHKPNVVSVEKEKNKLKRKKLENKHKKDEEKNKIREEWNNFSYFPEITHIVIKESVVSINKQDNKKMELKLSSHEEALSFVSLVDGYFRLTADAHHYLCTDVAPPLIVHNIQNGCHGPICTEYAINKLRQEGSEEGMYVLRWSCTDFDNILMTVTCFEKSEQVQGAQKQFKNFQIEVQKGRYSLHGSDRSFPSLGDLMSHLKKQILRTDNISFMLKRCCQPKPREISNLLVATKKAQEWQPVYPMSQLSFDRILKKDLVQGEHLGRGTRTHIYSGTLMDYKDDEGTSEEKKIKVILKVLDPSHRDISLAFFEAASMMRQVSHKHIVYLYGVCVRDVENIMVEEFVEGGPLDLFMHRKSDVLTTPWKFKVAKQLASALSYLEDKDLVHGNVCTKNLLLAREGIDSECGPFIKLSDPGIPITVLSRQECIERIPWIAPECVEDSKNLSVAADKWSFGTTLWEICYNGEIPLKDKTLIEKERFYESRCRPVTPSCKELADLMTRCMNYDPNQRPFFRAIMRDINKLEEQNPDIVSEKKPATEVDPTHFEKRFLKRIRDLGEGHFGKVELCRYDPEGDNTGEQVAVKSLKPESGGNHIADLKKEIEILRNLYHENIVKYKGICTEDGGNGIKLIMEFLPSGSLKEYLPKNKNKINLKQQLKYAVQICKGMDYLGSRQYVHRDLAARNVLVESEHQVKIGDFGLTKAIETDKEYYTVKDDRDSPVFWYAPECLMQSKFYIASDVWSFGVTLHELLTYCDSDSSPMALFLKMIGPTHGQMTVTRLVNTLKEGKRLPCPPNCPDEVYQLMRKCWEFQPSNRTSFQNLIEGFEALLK

| IC50 [nM] | SMILES |
| --- | --- |
| < 10 | N#C[C@@H]1CCC[C@H]1n1cc(C(N)=O)c(Nc2ccc3c(c2)COB3O)n1 (relative stereo) [Example 12, 1-(trans-2-cyanocyclopentyl)-3-((1-hydroxy-1,3-dihydrobenzo[c][1,2]oxaborol-5-yl)amino)-1H-pyrazole-4-carboxamide] |
| < 10 | N#C[C@@H]1CCOC[C@H]1n1cc(C(N)=O)c(Nc2cc3c(c(C4CC4)c2)OB(O)C=C3)n1 (single isomer, unassigned) [Example 55a, 1-[trans-4-cyanotetrahydro-2H-pyran-3-yl]-3-[(8-cyclopropyl-2-hydroxy-1,2-benzoxaborinin-6-yl)amino]pyrazole-4-carboxamide] |
| < 10 | N#CC1CCOCC1n1cc(C(N)=O)c(Nc2cc(Cl)c3c(c2)COB3O)n1 (stereo not drawn) [Example 52, 3-((7-chloro-1-hydroxy-1,3-dihydrobenzo[c][1,2]oxaborol-5-yl)amino)-1-(trans-4-cyanotetrahydro-2H-pyran-3-yl)-1H-pyrazole-4-carboxamide] |
| < 10 | Cc1cc(Nc2nn(C3COCCC3C#N)cc2C(N)=O)cc2c1OB(O)C=C2 (stereo not drawn) [Example 27, 1-[trans-4-cyanotetrahydro-2H-pyran-3-yl]-3-[(2-hydroxy-8-methyl-1,2-benzoxaborinin-6-yl)amino]pyrazole-4-carboxamide] |
| < 10 | CC1=C(C)c2cc(Nc3nn([C@@H]4COCC[C@H]4C#N)cc3C(N)=O)ccc2OB1O (relative stereo) [Example 4, 1-(trans-4-cyanotetrahydro-2H-pyran-3-yl)-3-((2-hydroxy-3,4-dimethyl-2H-benzo[e][1,2]oxaborinin-6-yl)amino)-1H-pyrazole-4-carboxamide] |
| < 10 | N#CC1CCOCC1n1cc(C(N)=O)c(Nc2ccc3c(c2)C=CB(O)O3)n1 (stereo not drawn) [Example 51, 1-(trans-4-cyanotetrahydro-2H-pyran-3-yl)-3-[(2-hydroxy-1,2-benzoxaborinin-6-yl)amino]pyrazole-4-carboxamide] |
| > 50 | CC(C)C1=CB(O)Oc2ccc(Nc3nn([C@@H]4COCC[C@H]4C#N)cc3C(N)=O)cc21 (single isomer, unassigned) [Example 30a, 1-[trans-4-cyanotetrahydro-2H-pyran-3-yl]-3-[(2-hydroxy-4-isopropyl-1,2-benzoxaborinin-6-yl)amino]pyrazole-4-carboxamide] |
| < 10 | N#C[C@@H]1CCOC[C@H]1n1cc(C(N)=O)c(Nc2ccc3c(c2)C=CB(O)O3)n1 (single isomer, unassigned) [Example 51b, 1-[trans-4-cyanotetrahydro-2H-pyran-3-yl]-3-[(2-hydroxy-1,2-benzoxaborinin-6-yl)amino]pyrazole-4-carboxamide] |
| < 10 | N#C[C@@H]1CCOC[C@H]1n1cc(C(N)=O)c(Nc2cc(F)c3c(c2)C=CB(O)O3)n1 (single isomer, unassigned) [Example 44a, 1-[trans-4-cyanotetrahydro-2H-pyran-3-yl]-3-[(8-fluoro-2-hydroxy-1,2-benzoxaborinin-6-yl)amino]pyrazole-4-carboxamide] |
| < 10 | CCC1=C(CC)c2cc(Nc3nn([C@@H]4COCC[C@H]4C#N)cc3C(N)=O)ccc2OB1O (relative stereo) [Example 39, 1-(trans-4-cyanotetrahydro-2H-pyran-3-yl)-3-[(3,4-diethyl-2-hydroxy-1,2-benzoxaborinin-6-yl)amino]pyrazole-4-carboxamide] |
| < 10 | N#C[C@@H]1CCOC[C@H]1n1cc(C(N)=O)c(Nc2cc(Cl)c3c(c2)C=CB(O)O3)n1 (single isomer, unassigned) [Example 13a, 3-[(8-chloro-2-hydroxy-1,2-benzoxaborinin-6-yl)amino]-1-[trans-4-cyanotetrahydro-2H-pyran-3-yl]pyrazole-4-carboxamide] |
| < 10 | N#CC1CCOCC1n1cc(C(N)=O)c(Nc2cc(F)c3c(c2)C=CB(O)O3)n1 (stereo not drawn) [Example 44, 1-[trans-4-cyanotetrahydro-2H-pyran-3-yl]-3-[(8-fluoro-2-hydroxy-1,2-benzoxaborinin-6-yl)amino]pyrazole-4-carboxamide] |
| > 50 | N#C[C@@H]1CCOC[C@H]1n1cc(C(N)=O)c(Nc2cc3c(c(C4CC4)c2)OB(O)C=C3)n1 (single isomer, unassigned) [Example 55b, 1-[trans-4-cyanotetrahydro-2H-pyran-3-yl]-3-[(8-cyclopropyl-2-hydroxy-1,2-benzoxaborinin-6-yl)amino]pyrazole-4-carboxamide] |
| < 10 | CC1=CB(O)Oc2ccc(Nc3nn(C4COCCC4C#N)cc3C(N)=O)cc21 (single isomer, unassigned) [Example 3a, 1-[trans-4-cyanotetrahydro-2H-pyran-3-yl]-3-[(2-hydroxy-4-methyl-1,2-benzoxaborinin-6-yl)amino]pyrazole-4-carboxamide (stereoisomerone)] |
| < 10 | N#C[C@@H]1CCOC[C@H]1n1cc(C(N)=O)c(Nc2ccc3c(c2)C(Cl)=CB(O)O3)n1 (single isomer, unassigned) [Example 43a, 3-[(4-chloro-2-hydroxy-1,2-benzoxaborinin-6-yl)amino]-1-[trans-4-cyanotetrahydro-2H-pyran-3-yl]pyrazole-4-carboxamide] |
| < 10 | N#C[C@@H]1CCCC[C@H]1n1cc(C(N)=O)c(Nc2ccc3c(c2)B(O)OC3)n1 (relative stereo) [Example 9, 1-(trans-2-cyanocyclohexyl)-3-[(1-hydroxy-3H-2,1-benzoxaborol-6-yl)amino]pyrazole-4-carboxamide] |
| < 10 | N#C[C@@H]1CCCC[C@H]1n1cc(C(N)=O)c(Nc2ccc3c(c2)COB3O)n1 (relative stereo) [Example 11, 1-(trans-2-cyanocyclohexyl)-3-((1-hydroxy-1,3-dihydrobenzo[c][1,2]oxaborol-5-yl)amino)-1H-pyrazole-4-carboxamide] |
| > 50 | N#C[C@@H]1CCOC[C@H]1n1cc(C(N)=O)c(Nc2ccc3c(c2)OB(O)C=C3)n1 (relative stereo) [Example 2, 1-[trans-4-cyanotetrahydro-2H-pyran-3-yl]-3-[(2-hydroxy-1,2-benzoxaborinin-7-yl)amino]pyrazole-4-carboxamide] |
| 10 to 50 | N#C[C@@H]1CCOC[C@H]1n1cc(C(N)=O)c(Nc2cc(F)c3c(c2)COB3O)n1 (single isomer, unassigned) [Example 38a, 1-[trans-4-cyanotetrahydro-2H-pyran-3-yl]-3-[(7-fluoro-1-hydroxy-3H-2,1-benzoxaborol-5-yl)amino]pyrazole-4-carboxamide] |
| < 10 | Cc1cc(Nc2nn([C@@H]3CCC[C@H]3C#N)cc2C(N)=O)cc2c1OB(O)C=C2 (relative stereo) [Example 31, 1-(trans-2-cyanocyclopentyl)-3-[(2-hydroxy-8-methyl-1,2-benzoxaborinin-6-yl)amino]pyrazole-4-carboxamide] |
| 10 to 50 | N#C[C@@H]1CCOC[C@H]1n1cc(C(N)=O)c(Nc2ccc3c(c2F)C=CB(O)O3)n1 (relative stereo) [Example 54, 1-(trans-4-cyanotetrahydro-2H-pyran-3-yl)-3-[(5-fluoro-2-hydroxy-1,2-benzoxaborinin-6-yl)amino]pyrazole-4-carboxamide] |
| < 10 | CC1(C)OB(O)c2cc(Nc3nn([C@@H]4COCC[C@H]4C#N)cc3C(N)=O)ccc21 (single isomer, unassigned) [Example 36b, 1-[trans-4-cyanotetrahydro-2H-pyran-3-yl]-3-[(1-hydroxy-3,3-dimethyl-2,1-benzoxaborol-6-yl)amino]pyrazole-4-carboxamide] |
